{"source": "patent US6403645B2", "about": "“Antidepressant effect of norepinephrine uptake 2 inhibitors and combined medications including them” (President and Fellows of Harvard College, priority 2000, dated 2002)", "experiment": "Urinary levels of norepinephrine and normetanephrine in depressed patients treated with desipramine", "type": "in vivo", "source_text": "(Plasma levels of normetanephrine were not measured in these studies.)", "key": {"[1]": {"details": "by the fourth week of treatment"}}}
{"smiles": "CNCCCN1c2ccccc2CCc2ccccc21", "note": "[desipramine]", "values": [{"measurement": "urinary levels of norepinephrine", "setting": "after one week of treatment", "value": "small decreases"}, {"measurement": "urinary levels of normetanephrine", "setting": "after one week of treatment", "value": "small decreases"}, {"measurement": "urinary levels of norepinephrine", "setting": "[1]", "value": "statistically significant increases"}, {"measurement": "urinary levels of normetanephrine", "setting": "[1]", "value": "statistically significant increases"}]}
